Measurements taken from patent US10947252B2, “Inhibitors of KEAP1-Nrf2 protein-protein interaction” (Janssen Pharmaceutica NV, priority 2018, dated 2021).

Experiments:
[1] = target: Kelch domain of human KEAP1 (321-624 aa) (Homo sapiens (Human), UniProt Q14145); test: KEAP1 KELCH ThermoFluor binding assay; details: KEAP Kelch […], 1,8-ANS, pH 7.0, average of results obtained, read-out: Tf Kd;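 also: Ligand-induced melting temperature shift of E. coli-expressed KEAP1 Kelch protein, Kd estimated from concentration-response curves of ΔTm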
[2] = test system: Glo-Response ARE-luc2P HEK293 cell line; test: ARE luciferase reporter cell-based assay; details: Homo sapiens, HEK293, 24 h, average of results obtained;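 also: luciferase signal tracks Nrf2 activation of the ARE once compounds disrupt KEAP1-Nrf2 binding, read with One-Glo reagent, DMSO serving as low control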

Kelch domain of human KEAP1 (321-624 aa), sequence (Q14145 321-624): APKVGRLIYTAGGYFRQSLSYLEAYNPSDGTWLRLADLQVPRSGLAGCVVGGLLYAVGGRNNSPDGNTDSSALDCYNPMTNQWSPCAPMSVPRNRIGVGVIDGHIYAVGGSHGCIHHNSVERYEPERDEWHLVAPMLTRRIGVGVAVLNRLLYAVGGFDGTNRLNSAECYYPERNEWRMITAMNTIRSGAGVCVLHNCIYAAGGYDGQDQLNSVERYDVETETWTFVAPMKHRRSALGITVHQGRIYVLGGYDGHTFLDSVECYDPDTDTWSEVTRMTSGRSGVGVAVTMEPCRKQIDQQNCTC

Row | Kd [1] | SMILES | EC50 [2]
1 | 2.82 µM | Cc1ccc([C@@H](c2ccn3c(C(F)(F)F)nnc3c2C)C(C)(C)C(=O)O)cc1CN1C[C@]2(CCOC2)Oc2ncccc2S1(=O)=O (single isomer, unassigned) [Example 381, (*S)-3-(3-(((*S)-1′,1′-Dioxido-4,5-dihydro-2H-spiro[furan-3,4′-pyrido[2,3-b][1,4,5]oxathiazepin]-2′(3′H)-yl)methyl)-4-methylphenyl)-2,2-dimethyl-3-(8-methyl-3-(trifluoromethyl)-[1,2,4]triazolo[4,3-a]pyridin-7-yl)propanoic Acid] | 0.427 µM
2 | < 0.001 µM | Cc1ccc([C@@H](c2ccn3c(C(F)(F)F)nnc3c2C)C(C)(C)C(=O)O)cc1CN1C[C@@]2(CCOC2)Oc2ncccc2S1(=O)=O (single isomer, unassigned) [Example 382, (*S)-3-(3-(((*R)-1′,1′-Dioxido-4,5-dihydro-2H-spiro[furan-3,4′-pyrido[2,3-b][1,4,5]oxathiazepin]-2′(3′H)-yl)methyl)-4-methylphenyl)-2,2-dimethyl-3-(8-methyl-3-(trifluoromethyl)-[1,2,4]triazolo[4,3-a]pyridin-7-yl)propanoic Acid] | 0.0018 µM
3 | < 0.001 µM | Cc1cnc2c(c1)S(=O)(=O)N(Cc1cc([C@@H](c3ccn4c(C(F)(F)F)nnc4c3C)C(C)(C)C(=O)O)ccc1C)C[C@]1(CCOC1)O2 (single isomer, unassigned) [Example 383, (*S)-2,2-Dimethyl-3-(4-methyl-3-(((*S)-8′-methyl-1′,1′-dioxido-4,5-dihydro-2H-spiro[furan-3,4′-pyrido[2,3-b][1,4,5]oxathiazepin]-2′(3′H)-yl)methyl)phenyl)-3-(8-methyl-3-(trifluoromethyl)-[1,2,4]triazolo[4,3-a]pyridin-7-yl)propanoic Acid] | 0.0012 µM
4 | 0.246 µM | Cc1cnc2c(c1)S(=O)(=O)N(Cc1cc([C@@H](c3ccn4c(C(F)(F)F)nnc4c3C)C(C)(C)C(=O)O)ccc1C)C[C@@]1(CCOC1)O2 (single isomer, unassigned) [Example 384, (*S)-2,2-Dimethyl-3-(4-methyl-3-(((*R)-8′-methyl-1′,1′-dioxido-4,5-dihydro-2H-spiro[furan-3,4′-pyrido[2,3-b][1,4,5]oxathiazepin]-2′(3′H)-yl)methyl)phenyl)-3-(8-methyl-3-(trifluoromethyl)-[1,2,4]triazolo[4,3-a]pyridin-7-yl)propanoic Acid] | 0.15 µM
5 | < 0.001 µM | Cc1ccc([C@H](c2ccn3c(C(F)(F)F)nnc3c2C)C(C)(C)C(=O)O)cc1CN1C[C@]2(CCOC2)Oc2ncccc2S1(=O)=O (single isomer, unassigned) [Example 385, (*R)-3-(3-(((*S)-1′,1′-Dioxido-4,5-dihydro-2H-spiro[furan-3,4′-pyrido[2,3-b][1,4,5]oxathiazepin]-2′(3′H)-yl)methyl)-4-methylphenyl)-2,2-dimethyl-3-(8-methyl-3-(trifluoromethyl)-[1,2,4]triazolo[4,3-a]pyridin-7-yl)propanoic Acid] | 0.0018 µM
6 | 1.06 µM | Cc1ccc([C@H](c2ccn3c(C(F)(F)F)nnc3c2C)C(C)(C)C(=O)O)cc1CN1C[C@@]2(CCOC2)Oc2ncccc2S1(=O)=O (single isomer, unassigned) [Example 386, (*R)-3-(3-(((*R)-1′,1′-Dioxido-4,5-dihydro-2H-spiro[furan-3,4′-pyrido[2,3-b][1,4,5]oxathiazepin]-2′(3′H)-yl)methyl)-4-methylphenyl)-2,2-dimethyl-3-(8-methyl-3-(trifluoromethyl)-[1,2,4]triazolo[4,3-a]pyridin-7-yl)propanoic Acid] | 0.343 µM
7 | 1.23 µM | Cc1cnc2c(c1)S(=O)(=O)N(Cc1cc([C@H](c3ccn4c(C(F)(F)F)nnc4c3C)C(C)(C)C(=O)O)ccc1C)C[C@]1(CCOC1)O2 (single isomer, unassigned) [Example 387, (*R)-2,2-Dimethyl-3-(4-methyl-3-(((*S)-8′-methyl-1′,1′-dioxido-4,5-dihydro-2H-spiro[furan-3,4′-pyrido[2,3-b][1,4,5]oxathiazepin]-2′(3′H)-yl)methyl)phenyl)-3-(8-methyl-3-(trifluoromethyl)-[1,2,4]triazolo[4,3-a]pyridin-7-yl)propanoic Acid] | 0.27 µM
8 | < 0.001 µM | Cc1cnc2c(c1)S(=O)(=O)N(Cc1cc([C@H](c3ccn4c(C(F)(F)F)nnc4c3C)C(C)(C)C(=O)O)ccc1C)C[C@@]1(CCOC1)O2 (single isomer, unassigned) [Example 388, (*R)-2,2-Dimethyl-3-(4-methyl-3-(((*R)-8′-methyl-1′,1′-dioxido-4,5-dihydro-2H-spiro[furan-3,4′-pyrido[2,3-b][1,4,5]oxathiazepin]-2′(3′H)-yl)methyl)phenyl)-3-(8-methyl-3-(trifluoromethyl)-[1,2,4]triazolo[4,3-a]pyridin-7-yl)propanoic Acid] | 0.001 µM

More lines, now with the values behind:

Row | SMILES | Kd [1] | EC50 [2]
9 | Cc1ccc([C@@H](c2ccn3c(C(F)F)nnc3c2C)C(C)(C)C(=O)O)cc1CN1CC2(CCOCC2)Oc2nc(OCCN3CCCC3)c(C)cc2S1(=O)=O (single isomer, unassigned) [Example 377, (*S)-3-(3-(Difluoromethyl)-8-methyl-[1,2,4]triazolo[4,3-a]pyridine-7-yl)-2,2-dimethyl-3-(4-methyl-3-((8′-methyl-1′,1′-dioxido-7′-(2-(pyrrolidin-1-yl)ethoxy)-2,3,5,6-tetrahydrospiro[pyran-4,4′-pyrido[2,3-b][1,4,5]oxathiazepin]-2′(3′H)-yl)methyl)phenyl)propanoic Acid] | < 0.001 µM | 0.0449 µM
10 | COC1CCN(CCOc2nc3c(cc2C)S(=O)(=O)N(Cc2cc([C@@H](c4ccn5c(C(F)(F)F)nnc5c4C)C(C)(C)C(=O)O)ccc2C)CC2(CC2)O3)CC1 (single isomer, unassigned) [Example 378, (*S)-3-(3-((7′-(2-(4-Methoxypiperidin-1-yl)ethoxy)-8′-methyl-1′,1′-dioxidospiro[cyclopropane-1,4′-pyrido[2,3-b][1,4,5]oxathiazepin]-2′(3′H)-yl)methyl)-4-methylphenyl)-2,2-dimethyl-3-(8-methyl-3-(trifluoromethyl)-[1,2,4]triazolo[4,3-a]pyridine-7-yl)propanoic Acid] | < 0.001 µM | 0.004 µM
11 | Cc1ccc([C@@H](c2ccn3c(C(F)F)nnc3c2C)C(C)(C)C(=O)O)cc1CN1CC2(CCOCC2)Oc2nc(OCCN3CCCCC3)c(C)cc2S1(=O)=O (single isomer, unassigned) [Example 379, (*S)-3-(3-(Difluoromethyl)-8-methyl-[1,2,4]triazolo[4,3-a]pyridine-7-yl)-2,2-dimethyl-3-(4-methyl-3-((8′-methyl-1′,1′-dioxido-7′-(2-(piperidin-1-yl)ethoxy)-2,3,5,6-tetrahydrospiro[pyran-4,4′-pyrido[2,3-b][1,4,5]oxathiazepin]-2′(3′H)-yl)methyl)phenyl)propanoic Acid] | < 0.001 µM | 0.0123 µM
12 | Cc1ccc([C@H](c2ccn3c(C(F)(F)F)nnc3c2C)C(C)(C)C(=O)O)cc1CN1CC2(CC2)Oc2nc(N[C@@H](C)CN3CCCCC3)c(C)cc2S1(=O)=O (single isomer, unassigned) [Example 380, (*R)-2,2-Dimethyl-3-(4-methyl-3-((8′-methyl-1′,1′-dioxido-7′-(((S)-1-piperidin-1-yl)propan-2-yl)amino)spiro[cyclopropane-1,4′-pyrido [2,3-b][1,4,5]oxathiazepin]-2′(3′H)-yl)methyl)phenyl)-3-(8-methyl-3-(trifluoromethyl)-[1,2,4]triazolo[4,3-a]pyridine-7-yl)propanoic Acid] | < 0.001 µM | 0.0141 µM
13 | Cc1ccc([C@H](CC(=O)O)c2ccn3c(C(F)(F)F)nnc3c2C)cc1CN1C[C@H]2CCCN2c2ncccc2S1(=O)=O (single isomer, unassigned) [Example 389, (*S)-3-(3-(((R)-5,5-Dioxido-7a,8,9,10-tetrahydropyrido[2,3-f]pyrrolo[2,1-d][1,2,5]thiadiazepin-6(7H)-yl)methyl)-4-methylphenyl)-3-(8-methyl-3-(trifluoromethyl)-[1,2,4]triazolo[4,3-a]pyridin-7-yl)propanoic Acid] | < 0.001 µM | 0.0121 µM
14 | Cc1ccc([C@@H](CC(=O)O)c2ccn3c(C(F)(F)F)nnc3c2C)cc1CN1C[C@H]2CCCN2c2ncccc2S1(=O)=O (single isomer, unassigned) [Example 390, (*R)-3-(3-(((R)-5,5-Dioxido-7a,8,9,10-tetrahydropyrido[2,3-f]pyrrolo[2,1-d][1,2,5]thiadiazepin-6(7H)-yl)methyl)-4-methylphenyl)-3-(8-methyl-3-(trifluoromethyl)-[1,2,4]triazolo[4,3-a]pyridin-7-yl)propanoic Acid] | < 0.001 µM | 0.0909 µM
15 | Cc1cnc2c(c1)S(=O)(=O)N(Cc1cc([C@@H](c3ccn4c(C5CC5)nnc4c3C)C(C)(C)C(=O)O)ccc1C)CC1(CC1)O2 (single isomer, unassigned) [Example 392, (*S)-3-(3-Cyclopropyl-8-methyl-[1,2,4]triazolo[4,3-a]pyridin-7-yl)-2,2-dimethyl-3-(4-methyl-3-((8′-methyl-1′,1′-dioxidospiro[cyclopropane-1,4′-pyrido[2,3-b][1,4,5]oxathiazepin]-2′(3′H)-yl)methyl)phenyl)propanoic Acid] | < 0.001 µM | 0.0113 µM
16 | Cc1cnc2c(c1)S(=O)(=O)N(Cc1cc([C@H](c3ccn4c(C5CC5)nnc4c3C)C(C)(C)C(=O)O)ccc1C)CC1(CC1)O2 (single isomer, unassigned) [Example 393, (*R)-3-(3-Cyclopropyl-8-methyl-[1,2,4]triazolo[4,3-a]pyridin-7-yl)-2,2-dimethyl-3-(4-methyl-3-((8′-methyl-1′,1′-dioxidospiro[cyclopropane-1,4′-pyrido[2,3-b][1,4,5]oxathiazepin]-2′(3′H)-yl)methyl)phenyl)propanoic Acid] | 2.1 µM | 4.8 µM
